{
  "source": "patent US20050239051A1",
  "about": "“Use of isogenic human cancer cells for high-throughput screening and drug discovery” (The Johns Hopkins University, priority 2001, published 2005)",
  "key": {"mutant-RAS cell line": {"system": "mutant-RAS cell line", "experiment": "Growth inhibition assay with parental non-GFP cell lines plated separately, PicoGreen (FIG. 6)", "format": "cell-based, human", "details": "range of concentrations, five days", "protocol": "FIG. 6. Structure/activity ratios (SAR's) of compounds with structural homology to TPT. Growth inhibition assays were performed using parental (non-GFP modified) cell lines. Cells were plated separately at low density in 96 well plates and exposed to a range of test drug concentrations for five days. Cells were then lysed in H2O, and lysates assayed for relative cell number using the dsDNA-binding dye (PicoGreen).\nSecondary screens on primary screen hits were performed as above except that a drug concentration range was used, typically extending from 30 ng/ml to 4 μg/ml. […] Assays using non-GFP modified cell lines were performed using cells plated separately rather than co-cultured. Plates were harvested each day for assessment of cell number using either an MTT assay or using the DNA-binding dye PicoGreen (Molecular Probes, Eugene, Oreg.). MTT assays were performed according to the manufacturers instructions (Trevigen, Gaithersburg, Md.). PicoGreen assays were performed by lysing cells in 96-well plates in 200 μl H2O, triturating and then transferring a 10 μl aliquot from each well to […] of PigoGreen solution (# P-7581) diluted to 0.5% vol/vol in Tris-EDTA (TE) buffer."}, "[1]": {"system": "DLD-1 cells (mutant c-Ki-Ras)", "experiment": "Co-culture fluorescence growth inhibition screen, DLD-1 cells (BFP)", "format": "cell-based, human", "description": "(§1) FIG. 1. Schematic of drug screening format using co-cultured isogenic cells modified with spectrally distinct green fluorescent protein (GFP) variants. DLD-1 cells, harbouring a mutant c-Ki-RAS allele plus a wild-type (wt) c-Ki-RAS allele, were modified to stably express a GFP variant that is excited at 530 nm (YFP). An isogenic clone (KO) in which only the mutant c-Ki-RAS allele has been deleted (Adegboyega et al., Arch. Pathol. Lab. Med., 121:1063-68, 1997) was modified to express a GFP variant that is excited at 390 nm (BFP). These cells were mixed and plated at low density in 96-well plates. […] Plates were assayed every day for six days using a fluorescence plate reader to obtain growth curves for each cell line in every well of the plate.\n(§2) FIG. 5. […] Growth curves were obtained from fluorescence at 390ex/508em (DLD-1) and 530ex/590em (KO). […]\n(§3) Fluorescent cell lines were harvested by trypsinization and resuspended together as a mixture containing 22,000 cells/ml (DLD-1) and 18,000 cells/ml (KO) in DMEM media supplemented with 10% FCS (HyClone, Logan, Utah). […] Each well of column 1 contained […] of the growth medium without cells as a control for computing background fluorescence. […] Fluorometry data from each day's read were exported to a custom program (Drugmobile) for plotting the growth curves of each cell line in each well of the 96-well plate. […]"}, "[2]": {"system": "KO cells (DKS-8, mutant c-Ki-Ras allele deleted)", "experiment": "Co-culture fluorescence growth inhibition screen, KO cells (YFP)", "format": "cell-based, human", "details": "concentration and time course experiments, co-cultured cells (FIG. 5)", "description": "as §1, §2, §3"}, "p38": {"target": "p38 (Homo sapiens, UniProt Q16539)", "sequence (Q16539 whole entry)": "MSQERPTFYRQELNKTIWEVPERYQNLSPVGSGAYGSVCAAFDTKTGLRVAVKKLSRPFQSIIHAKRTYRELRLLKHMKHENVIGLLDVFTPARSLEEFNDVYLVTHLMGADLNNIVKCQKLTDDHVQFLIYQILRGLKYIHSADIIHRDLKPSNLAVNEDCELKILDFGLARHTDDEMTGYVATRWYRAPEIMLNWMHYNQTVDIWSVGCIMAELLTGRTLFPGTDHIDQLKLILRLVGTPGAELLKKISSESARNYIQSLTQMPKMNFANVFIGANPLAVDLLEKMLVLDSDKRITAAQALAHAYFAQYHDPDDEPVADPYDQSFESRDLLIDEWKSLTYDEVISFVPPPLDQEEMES", "experiment": "In vitro kinase assay, p38", "format": "biochemical", "details": "in vitro kinase assays (data not shown)", "description": "(§4) No anti-proliferative activity has previously been described for TPT. Tetrazole compounds such as TPT are commonly used as histological reagents that are reduced by cellular dehydrogenases in viable cells to a coloured formazan dye (Adegboyega et al., Arch. Pathol. Lab. Med., 121:1063-68, 1997, Otero et al., Cytotechnology, 6:137-42, 1991). However, no obvious staining of cells was observed using TPT at the concentrations used in the present assays. […] A previously identified inhibitor of p38 mitogen activated kinase (SB203580) (Cuenda et al., FEBS Lett., 364:229-33, 1995, Liverton et al., J. Med. Chem., 42:2180-90, 1999) was also noted to be structurally similar to TPT (FIG. 6). […] It is therefore unclear whether kinases represent cellular targets for TPT."}, "c-Raf-1": {"target": "c-Raf-1 (Homo sapiens, UniProt P04049)", "sequence (P04049 whole entry)": "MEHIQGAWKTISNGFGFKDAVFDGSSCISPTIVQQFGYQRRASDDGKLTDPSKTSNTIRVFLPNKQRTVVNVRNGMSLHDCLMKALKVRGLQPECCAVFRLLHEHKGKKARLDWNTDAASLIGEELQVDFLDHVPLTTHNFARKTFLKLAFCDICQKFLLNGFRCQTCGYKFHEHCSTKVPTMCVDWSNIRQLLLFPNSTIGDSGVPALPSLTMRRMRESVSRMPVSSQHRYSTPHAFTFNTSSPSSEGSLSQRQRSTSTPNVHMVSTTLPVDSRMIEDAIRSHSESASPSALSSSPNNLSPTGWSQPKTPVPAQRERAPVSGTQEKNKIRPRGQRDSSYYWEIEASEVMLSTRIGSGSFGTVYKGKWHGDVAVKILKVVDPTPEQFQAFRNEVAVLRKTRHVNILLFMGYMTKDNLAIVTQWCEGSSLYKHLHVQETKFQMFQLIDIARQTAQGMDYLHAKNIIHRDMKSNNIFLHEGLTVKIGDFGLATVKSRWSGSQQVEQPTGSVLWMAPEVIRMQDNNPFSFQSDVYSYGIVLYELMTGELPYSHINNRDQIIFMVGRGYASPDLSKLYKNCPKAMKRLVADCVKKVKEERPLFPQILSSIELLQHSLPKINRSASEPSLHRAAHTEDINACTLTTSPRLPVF", "experiment": "In vitro kinase assay, c-Raf-1", "format": "biochemical", "details": "in vitro kinase assays (data not shown)", "description": "as §4"}, "c-Jun kinases": {"system": "c-Jun kinases", "experiment": "In vitro kinase assay, c-Jun kinases", "format": "biochemical", "details": "in vitro kinase assays (data not shown)", "description": "as §4"}, "[3]": {"system": "downstream components of the RAS pathway", "details": "previously shown (Cardenas 1998; Campbell 1994); cited from earlier work"}},
  "data": [
    {"smiles": "C[S+]([O-])c1ccc(-c2nc(-c3ccncc3)c(-c3ccc(F)cc3)[nH]2)cc1", "note": "(centres unmarked) [SB203580]", "values": [
      {"measurement": "selectivity towards the mutant RAS-containing line", "setting": "mutant-RAS cell line", "value": "failed to show selectivity"}
    ]},
    {"smiles": "c1ccc(-c2nn(-c3ccccc3)[n+](-c3ccccc3)n2)cc1", "note": "[TPT, Triphenyltetrazolium]", "values": [
      {"measurement": "selectivity for inhibiting the growth of the mutant c-Ki-RAS cell line (DLD-1)", "setting": "[1]; DLD-1 versus KO", "value": "~6", "unit": "fold"},
      {"measurement": "IC50 on DLD-1", "setting": "[1]; concentration and time course experiments, co-cultured cells (FIG. 5)", "value": "~2", "unit": "µg/mL"},
      {"measurement": "IC50 on KO", "setting": "[2]", "value": "~12", "unit": "µg/mL"},
      {"measurement": "inhibition of p38", "setting": "p38", "value": "little or no reproducible inhibition"},
      {"measurement": "inhibition of c-Raf-1", "setting": "c-Raf-1", "value": "little or no reproducible inhibition"},
      {"measurement": "inhibition of c-Jun kinases", "setting": "c-Jun kinases", "value": "little or no reproducible inhibition"}
    ]},
    {"smiles": "C[C@@]12c3ccc4c(c3C(=O)c3occ(c31)C(=O)C[C@H]2O)CCC4=O", "note": "[demethoxyviridin]", "values": [
      {"measurement": "inhibition of downstream components of the RAS pathway", "setting": "[3]", "value": "inhibit downstream components of the RAS pathway"}
    ]}
  ]
}
